According to ChEMBL document CHEMBL1201862, “PubChem BioAssay data set” (2004):
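Exposure lasted 48 hours, with cells grown in 96-well plates and compounds tested at five concentrations. The concentration for 50% growth inhibition is given as GI50.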 Active and inactive are the calls of the source. Cut-off read from the data, not from the text of the source: active = GI50 up to about 1.1 µM and inactive = higher.

What was measured:
Assay in all cases: NCI tumour cell line growth inhibition, 48 h
MOLT-4 = system: MOLT-4
OVCAR-8 = system: OVCAR-8
NCI-H226 = system: NCI-H226
NCI-H522 = system: NCI-H522
CAKI-1 = system: CAKI-1
UACC-62 = system: UACC-62
RXF 393 = system: RXF 393
PC-3 = system: PC-3
A498 = system: A498
NCI-H460 = system: NCI-H460
SF-295 = system: SF-295
SR = system: SR
NCI-H23 = system: NCI-H23
HT-29 = system: HT-29
SK-MEL-28 = system: SK-MEL-28
RPMI-8226 = system: RPMI-8226
KM12 = system: KM12
OVCAR-5 = system: OVCAR-5
U-251 = system: U-251
SW-620 = system: SW-620
HOP-62 = system: HOP-62
ACHN = system: ACHN
786-0 = system: 786-0
T47D = system: T47D
CCRF-CEM = system: CCRF-CEM
NCI/ADR-RES = system: NCI/ADR-RES
SN12C = system: SN12C
EKVX = system: EKVX
HOP-92 = system: HOP-92
BT-549 = system: BT-549
OVCAR-3 = system: OVCAR-3
SF-268 = system: SF-268
SK-MEL-2 = system: SK-MEL-2
K562 = system: K562
SF-539 = system: SF-539
IGROV-1 = system: IGROV-1
A549 = system: A549
UO-31 = system: UO-31
HCC 2998 = system: HCC 2998
HL-60 = system: HL-60
DU-145 = system: DU-145
SNB-19 = system: SNB-19
MDA-MB-231 = system: MDA-MB-231
COLO 205 = system: COLO 205
MDA-MB-435 = system: MDA-MB-435
SK-MEL-5 = system: SK-MEL-5
Hs-578T = system: Hs-578T
UACC-257 = system: UACC-257
MCF7 = system: MCF7
M14 = system: M14
HCT-116 = system: HCT-116
OVCAR-4 = system: OVCAR-4
HCT-15 = system: HCT-15
SK-OV-3 = system: SK-OV-3
TK-10 = system: TK-10
SNB-75 = system: SNB-75
Malme-3M = system: Malme-3M
LOX IMVI = system: LOX IMVI

CC1=NN(c2nc(N)nc(CCl)n2)CC1
GI50 (MOLT-4): 19.7 µM (inactive)
GI50 (OVCAR-8): 20.8 µM (inactive)
GI50 (NCI-H226): 30.5 µM (inactive)
GI50 (NCI-H522): 1.96 µM (inactive)
GI50 (CAKI-1): 9.12 µM (inactive)
GI50 (UACC-62): 15.2 µM (inactive)
GI50 (RXF 393): 49.8 µM (inactive)
GI50 (PC-3): 36.2 µM (inactive)
GI50 (A498): 42.3 µM (inactive)
GI50 (NCI-H460): 20.9 µM (inactive)
GI50 (SF-295): 30.2 µM (inactive)
GI50 (SR): 20.8 µM (inactive)
GI50 (NCI-H23): 19.3 µM (inactive)
GI50 (HT-29): 30.4 µM (inactive)
GI50 (SK-MEL-28): 22.8 µM (inactive)
GI50 (RPMI-8226): 38.9 µM (inactive)
GI50 (KM12): 16.4 µM (inactive)
GI50 (OVCAR-5): 20 µM (inactive)
GI50 (U-251): 29.4 µM (inactive)
GI50 (SW-620): 23.3 µM (inactive)
GI50 (HOP-62): 11.4 µM (inactive)
GI50 (ACHN): 17.3 µM (inactive)
GI50 (786-0): 10.1 µM (inactive)
GI50 (T47D): 74.8 µM (inactive)
GI50 (CCRF-CEM): 14.9 µM (inactive)
GI50 (NCI/ADR-RES): 24.2 µM (inactive)
GI50 (SN12C): 32.4 µM (inactive)
GI50 (EKVX): 16.1 µM (inactive)
GI50 (HOP-92): 19.3 µM (inactive)
GI50 (BT-549): 31 µM (inactive)
GI50 (OVCAR-3): 13.4 µM (inactive)
GI50 (SF-268): 32.7 µM (inactive)
GI50 (SK-MEL-2): 26.6 µM (inactive)
GI50 (K562): 18.2 µM (inactive)
GI50 (SF-539): 24.5 µM (inactive)
GI50 (IGROV-1): 7.14 µM (inactive)
GI50 (A549): 57.7 µM (inactive)
GI50 (UO-31): 7.76 µM (inactive)
GI50 (HCC 2998): 31.2 µM (inactive)
GI50 (HL-60): 12 µM (inactive)
GI50 (DU-145): 56.4 µM (inactive)
GI50 (SNB-19): > 100 µM (inactive)
GI50 (MDA-MB-231): 40 µM (inactive)
GI50 (COLO 205): 18.5 µM (inactive)
GI50 (MDA-MB-435): 32 µM (inactive)
GI50 (SK-MEL-5): 14.8 µM (inactive)
GI50 (Hs-578T): 26.3 µM (inactive)
GI50 (UACC-257): 69.5 µM (inactive)
GI50 (MCF7): 38.1 µM (inactive)
GI50 (M14): 25 µM (inactive)
GI50 (HCT-116): 24.5 µM (inactive)
GI50 (OVCAR-4): 16.8 µM (inactive)
GI50 (HCT-15): 17.3 µM
GI50 (SK-OV-3): 36.6 µM (inactive)
GI50 (TK-10): 55.5 µM (inactive)
GI50 (SNB-75): 18.6 µM (inactive)

COc1cc2nc(-c3cccs3)nc(Nc3ccccc3C(=O)NN)c2cc1OC
GI50 (MOLT-4): > 100 µM (inactive)
GI50 (OVCAR-8): > 100 µM (inactive)
GI50 (NCI-H226): > 100 µM (inactive)
GI50 (NCI-H522): > 100 µM (inactive)
GI50 (CAKI-1): > 100 µM (inactive)
GI50 (UACC-62): > 100 µM (inactive)
GI50 (PC-3): > 100 µM (inactive)
GI50 (A498): > 100 µM (inactive)
GI50 (NCI-H460): > 100 µM (inactive)
GI50 (SF-295): 66.8 µM (inactive)
GI50 (Malme-3M): > 100 µM (inactive)
GI50 (SR): 23.6 µM (inactive)
GI50 (NCI-H23): > 100 µM (inactive)
GI50 (LOX IMVI): 51.5 µM (inactive)
GI50 (HT-29): > 100 µM (inactive)
GI50 (SK-MEL-28): 99.8 µM (inactive)
GI50 (RPMI-8226): > 100 µM (inactive)
GI50 (KM12): > 100 µM (inactive)
GI50 (OVCAR-5): > 100 µM (inactive)
GI50 (U-251): 96.2 µM (inactive)
GI50 (SW-620): > 100 µM (inactive)
GI50 (HOP-62): > 100 µM (inactive)
GI50 (ACHN): > 100 µM (inactive)
GI50 (786-0): 95.7 µM (inactive)
GI50 (T47D): > 100 µM (inactive)
GI50 (CCRF-CEM): > 100 µM (inactive)
GI50 (NCI/ADR-RES): > 100 µM (inactive)
GI50 (SN12C): > 100 µM (inactive)
GI50 (EKVX): > 100 µM (inactive)
GI50 (HOP-92): 21.6 µM (inactive)
GI50 (BT-549): > 100 µM (inactive)
GI50 (OVCAR-3): 57.5 µM (inactive)
GI50 (SF-268): > 100 µM (inactive)
GI50 (SK-MEL-2): > 100 µM (inactive)
GI50 (K562): 97.5 µM (inactive)
GI50 (SF-539): > 100 µM (inactive)
GI50 (IGROV-1): > 100 µM (inactive)
GI50 (A549): > 100 µM (inactive)
GI50 (UO-31): > 100 µM (inactive)
GI50 (HCC 2998): > 100 µM (inactive)
GI50 (HL-60): 44.9 µM (inactive)
GI50 (DU-145): > 100 µM (inactive)
GI50 (SNB-19): > 100 µM (inactive)
GI50 (MDA-MB-231): > 100 µM (inactive)
GI50 (COLO 205): 67.3 µM (inactive)
GI50 (MDA-MB-435): 95.7 µM (inactive)
GI50 (SK-MEL-5): > 100 µM (inactive)
GI50 (Hs-578T): > 100 µM (inactive)
GI50 (UACC-257): > 100 µM (inactive)
GI50 (MCF7): > 100 µM (inactive)
GI50 (M14): > 100 µM (inactive)
GI50 (HCT-116): > 100 µM (inactive)
GI50 (OVCAR-4): 27.8 µM (inactive)
GI50 (HCT-15): > 100 µM
GI50 (SK-OV-3): > 100 µM (inactive)
GI50 (TK-10): > 100 µM (inactive)
GI50 (SNB-75): > 100 µM (inactive)

Cc1nc(=O)c2cc(CN(C)c3ccc(C(=O)N[C@@H](CCC(=O)O)C(=O)O)s3)ccc2[nH]1 [RALTITREXED]
GI50 (MOLT-4): 0.0977 µM (active)
GI50 (OVCAR-8): 0.0883 µM (active)
GI50 (NCI-H226): > 100 µM (inactive)
GI50 (NCI-H522): > 100 µM (inactive)
GI50 (CAKI-1): > 100 µM (inactive)
GI50 (UACC-62): 0.193 µM (active)
GI50 (PC-3): > 100 µM (inactive)
GI50 (NCI-H460): 0.041 µM (active)
GI50 (SF-295): 0.0535 µM (active)
GI50 (Malme-3M): 0.303 µM (active)
GI50 (SR): 0.0399 µM (active)
GI50 (LOX IMVI): 0.0303 µM (active)
GI50 (HT-29): > 100 µM (inactive)
GI50 (SK-MEL-28): > 100 µM (inactive)
GI50 (RPMI-8226): 0.0834 µM (active)
GI50 (KM12): > 100 µM (inactive)
GI50 (OVCAR-5): > 100 µM (inactive)
GI50 (U-251): 0.546 µM (active)
GI50 (SW-620): > 100 µM (inactive)
GI50 (HOP-62): 0.13 µM (active)
GI50 (ACHN): 0.0467 µM (active)
GI50 (786-0): 0.0438 µM (active)
GI50 (T47D): > 100 µM (inactive)
GI50 (SN12C): 0.65 µM (active)
GI50 (EKVX): > 100 µM (inactive)
GI50 (HOP-92): > 100 µM (inactive)
GI50 (BT-549): 71.4 µM (inactive)
GI50 (OVCAR-3): > 100 µM (inactive)
GI50 (SF-268): 12.8 µM (inactive)
GI50 (SK-MEL-2): > 100 µM (inactive)
GI50 (K562): 0.0104 µM (active)
GI50 (SF-539): 84.7 µM (inactive)
GI50 (IGROV-1): > 100 µM (inactive)
GI50 (A549): 11.9 µM (inactive)
GI50 (HL-60): 5.92 µM (inactive)
GI50 (DU-145): 0.273 µM (active)
GI50 (SNB-19): > 100 µM (inactive)
GI50 (MDA-MB-231): > 100 µM (inactive)
GI50 (COLO 205): > 100 µM (inactive)
GI50 (MDA-MB-435): > 100 µM (inactive)
GI50 (Hs-578T): > 100 µM (inactive)
GI50 (UACC-257): > 100 µM (inactive)
GI50 (MCF7): 8.04 µM (inactive)
GI50 (M14): 0.0931 µM (active)
GI50 (HCT-116): 0.264 µM (active)
GI50 (OVCAR-4): > 100 µM (inactive)
GI50 (HCT-15): > 100 µM
GI50 (SK-OV-3): > 100 µM (inactive)
GI50 (TK-10): > 100 µM (inactive)
GI50 (SNB-75): 6.79 µM (inactive)
